What was measured:
[1] = in vivo; settings: SD, rat, po, 1 g/kg
Procedure: In this test six-week old SPF SD rats were used with two rats assigned to each group. […] The dosing volume was 10 ml/kg. […] All survivors at the end of the observation period underwent laparotomy under ether anesthesia and the blood samples were taken from the abdominal aorta for hematological tests and biochemical analysis. After sacrificing the animals, autopsy was performed for macroscopic observation of the organs and tissues. Tissue samples of vital organs from macroscopic legion were removed and fixed in 10% neutral buffered formalin solution, then processed by standard procedures for histopathology and examined under light microscope.

[2] = system: isolated rat hearts; assay: Cardioprotective activity in isolated ischemic heart models of rats (Langendorff, global ischemia/reperfusion); settings: 10 μM
Procedure: Male Sprague-Dawley rats weighing 300-450 g were anesthetized with sodium pentobarbital (100 mg/kg, i.p.). The tail vein was injected with heparin (1,000 U/kg) and then the trachea was intubated. […] A latex balloon filled with solvent (ethanol: water=1:1 (v/v)) and attached to a metal cannula was placed in the left ventricle through pulmonary vein and connected to a Isotec pressure transducer (H.S.E., Germany) for measurement of left ventricular pressure (LVP). […] Then, baseline contractile function, heart rate (HR), and coronary flow (CF) (extracorporeal electromagnetic flow probe, Narco Bio-System, U.S.A.) were measured. Cardiac contractile function was calculated by subtracting LVEDP from LV peak systolic pressure (LVSP), yielding developed pressure (LVDP). Double product (DP), another important parameter for assessing cardiac performance, was calculated by multiplying HR by LVDP. Throughout the experiment, all these parameters were measured, and calculated before and 10 min after pretreatment with each compound and 30 min after the onset of reperfusion with buffer. Data on reperfusion DP were further expressed as the percentage to pretreatment DP.
We then rendered the hearts globally ischemic by completely shutting off the perfusate for 30 min. Severity of ischemia was determined as the time to contracture (TTC, min) during global ischemia in which the first 5 mmHg increase in EDP was observed. Then, the hearts were reperfused and, 30 min later, contractile function (LVDP, DP) and cumulative reperfusion lactate dehydrogenase (LDH) release were measured. LDH was measured as a sensitive index for loss of cell viability with a kit supplied by Boerhinger Mannheim based on the technique of Wroblewski and LaDue [F. Wroblewski and JS.

[3] = system: cerebral cortical neurons; assay: Protective activity for neuronal cells against iron-induced damage (LDH release); type: cell-based, rat; settings: 30 μM compound; 50 uM FeSO4, 24 hours; LDH reduction rate vs control
[4] = system: isolated rat aorta constricted with methoxamine; assay: Vasodilation effects on isolated aorta of rats (methoxamine-constricted rings); settings: isolated rat aorta constricted with methoxamine (3 μM); 50% relaxation
[5] = system: ischemic myocardium damage model of anesthetized rats; assay: Cardioprotective activity in ischemic heart models of rats (LAD occlusion/reperfusion, anesthetized rats); type: in vivo, rat; settings: rat in vivo, 0.3 mg/kg i.v.
Procedure: After trachetomy, the rats were rendered to respire artificially at a rate of 60/min with a stroke volume of 10 ml/kg. Cannulars were inserted into the fermoral vein and the fermoral artery and used for drug administration and blood pressure measurement, respectively.
In the ischemic myocardial injury models, the body temperature has an important influence on the results. To avoid the change in the body temperature, a body temperature measuring probe was inserted into the rectum of each rat and the body temperature was constantly kept at 37° C. with the aid of a homeothermic blanket control unit.
Afterwards, during testing, a continuous measurement was made of the mean arterial blood pressures and heart rates from the rats. For the measurement of the blood pressure, a pressure transducer, such as that manufactured by Grass Ins., MA, U.S.A., identified as Model Statham P23XL, was used.
The heart rate was measured by a tachometer, such as that manufactured by Gould Inc., Ohio, U.S.A., identified as Biotachometer. In addition, all of the changes occurring were continuously recorded through the Gould 2000 chart recorder, manufactured by Gould Inc.
The left coronary artery was occluded according to the Selye H. method as follows. The rats underwent a left thoracotomy operation for partial opening of the chest and the right-side chest was pressurized by the middle finger of the left hand to push the heart out. Immediately after the left anterior descending coronary artery hereinafter referred to as (LAD) was carefully stitched using a suture needle with 5-0 silk ligature, the heart was then repositioned in the thoracic cavity while both ends of the ligature were situated outside. The opposite ligature ends were passed through a PE tube (PE100, 2.5 cm) and allowed to stand loose for 20 min for stabilization. Via the cannula inserted into the femoral vein, vehicles or drugs were administered into the rats which were rendered to stand for 30 min in order to sufficiently elicit the efficacies of the drugs.
Next, the PE tube which had the doubled strands of the ligature passed therethrough was pushed toward the heart and then, set upright by tightly pulling end regions of the ligature with a hemostatic pincette while pressing the coronary artery.
After the reocclusion of the coronary artery in accordance with the above procedure, the rats were administered with 2 ml of a 1% Evans blue through an intravenous route. Subsequently, an excess of pentobarbital was intravenously injected to kill the rats, after which the heat was removed and then, deprived of the right ventricle and both atria. The left ventricle was cut horizontally to the heart apex into 5 or 6 slices which were weighed. From the surface of each slice, images were input with the aid of a Hi-scope into a computer installed with an image analyzing program (Image Pro Plus). From the images input into the computer, the area of the normal blood stream tissue region which appeared blue in a computer monitor and the area which appeared colorless were measured. The percentage of the colorless area to the total area of each slice was calculated and multiplied by the weight of each slice to determine the area at risk (AAR) of each slice. The AAR obtained from each slice was summed for all slices and the total AAR was divided by the total weight of the left ventricle to yield % AAR, as shown in the following mathematical formula 1:
AAR(%)=(summed AAR for all slices)/(total weight of left ventricle)×100 [Mathematical Formula 1]
During this fixation, 2,3,5-triphenyltetrazolium chloride was reduced into formazan dye by the myocardial dehydrogenase and its cofactor NADH, so that the normal regions of the tissue were colored brick-red. In contrast, the infarct zones of the tissue were deficient in the dehydrogenase and its cofactor, so that no reduction occurred on the 2,3,5-triphenyltetrazolium, allowing the color to remain unchanged.

CCOC(=O)[C@@H]1Cc2ccccc2N1[C@H]1c2cc([N+](=O)[O-])ccc2O[C@](C)(C(OC)OC)[C@@H]1O [Example 2, 1-[(2S, 3R, 4S)-3,4-dihydro-2-dimethoxymethyl-3-hydroxy-2-methyl-6-nitro-2H-1-benzopyran-4-yl]-(2S)-2,3-dihydro-1H-indole-2-carboxylic acid ethyl ester]
LD50 [1]: > 1000 mg/kg
LDH (U/g) ([2]; cumulative reperfusion LDH release): 17.8 U/g
EDP (MmHg) ([2]; left ventricular end-diastolic pressure after 30 min reperfusion): 25.7 MmHg
LDVP × HR (%) ([2]; reperfusion double product as % of pretreatment DP, 30 min global ischemia, 30 min reperfusion): 55.1%
TTC ([2]; time to contracture during global ischemia): 22.6 min
% Protection [3]: 79%
IC50 [4]: 24.3 µM
AAR/LV (%) ([5]; area at risk per left ventricle): 32.6%
IZ/AAR (%) ([5]; myocardial infarction rate to area at risk, 45 min occlusion, 90 min reperfusion): 39.1%
